In brackets after ≈: the same amount, converted by molar mass. Where two headings read alike, the source gives them in different places.
Columns and labels:
MRSA (ATCC 33591) = assay: MIC determination by broth microdilution vs. MRSA (ATCC 33591); format: cell-based, Staphylococcus aureus; settings: for MIC: Staphylococcus aureus
Method: (§1) Using a sterile loop, 3 to 5 isolated colonies of bacteria of the same morphological appearance are selected from the overnight agar plate. The colonies are transferred into a conical flask containing 5 mL of liquid medium (i.e. Mueller-Hinton broth). The broth is incubated at 37° C. in a shaker at 220 rpm until it reaches a turbidity that is equal to the turbidity of a McFarland Standard 0.5 (correspond to 1×10^8 cfu/mL). This culture growth step will require 1-2 hours depending on the bacteria tested.
During this pause period, an antibacterial dilution is prepared. Therefore an antibacterial stock solution is diluted in Mueller-Hinton broth. The concentration of DMSO is kept at 5%. 100 μL of the antibacterial solution are dispensed into the first well of a row. 50 μL of medium containing 0.5% of DMSO are dispensed to the rest of the wells. A 2-fold serial dilution is achieved by transferring 50 μL from the first well (containing the highest concentration of antibacterial) into the second well, and continuing like this until the 10th well in the row. The final 50 μL are discarded so that every well has 50 μL of each antibacterial dilution.
The 11th well was used as the growth control well (medium with bacterial inoculums, no antibacterial) while the 12th well was the sterility control well (medium only).
The bacterial suspension prepared above is mixed thoroughly, and diluted by a factor of 1:100 in the sterile medium. Each well and the growth control well is inoculated with 50 μL of the bacterial suspension. […] To the sterility control well 50 μL of sterile medium are added in place of the bacterial suspension. 10 μL aliquot from the growth control well is removed immediately after inoculating the plate and pipetted it into a sterile Eppendorf tube holding 990 μL of sterile broth. It is mixed well by vortexing. This suspension is further diluted (1:10) by pipetting 100 μL into 900 μL of sterile broth and mixing it well. 100 μL of each of the two dilutions are plated onto two different antibacterial-free agar plates. A sterile cell spreader is used to spread the liquid. Then the plate is sealed with a transparent adhesive film. The microtiter plate and agar plates are incubated at 37° C. for 16-20 hours or until satisfactory growth is obtained. The colonies on the agar plate are counted the next day to verify that the right number of cfu was inoculated. The plate is agitated in the SpectraMax spectrophotometer for 90 s and the OD600 for all the wells in the plate is recorded.

S. aureus (RN 4220) = assay: MIC determination by broth microdilution vs. S. aureus (RN 4220); format: cell-based; settings: Staphylococcus aureus
Method: as §1
(§2) During this pause period, an antibacterial dilution is prepared. Therefore an antibacterial stock solution is diluted in Mueller-Hinton broth. The concentration of DMSO is kept at 5%. 100 μL of the antibacterial solution are dispensed into the first well of a row. 50 μL of medium containing 0.5% of DMSO are dispensed to the rest of the wells. […]
(§3) The bacterial suspension prepared above is mixed thoroughly, and diluted by a factor of 1:100 in the sterile medium. […] The colonies on the agar plate are counted the next day to verify that the right number of cfu was inoculated. The plate is agitated in the SpectraMax spectrophotometer for 90 s and the OD600 for all the wells in the plate is recorded.

S. aureus (ATCC 29213) [1] = assay: MIC determination by broth microdilution vs. S. aureus (ATCC 29213); format: cell-based; settings: Staphylococcus aureus
Method: as §1, §2, §3

[2] = system: Strep. pneumoniae (ATCC 49619); assay: MIC determination by broth microdilution vs. Strep. pneumoniae (ATCC 49619); format: cell-based, Streptococcus pneumoniae
Method: as §1, §2, §3

[3] = system: Strep. pyogenes (ARC 838); assay: MIC determination by broth microdilution vs. Strep. pyogenes (ARC 838); format: cell-based; settings: Streptococcus pyogenes
Method: as §1, §2, §3

E. faecalis = assay: Antibacterial activity on E. faecalis; format: cell-based
Method: as §1, §2, §3

S. aureus (ATCC 29213) [4] = assay: Bactericidal activity at MIC after dilution of the antibacterial (FIG. 2); format: cell-based, Staphylococcus aureus; settings: treatment at its MIC
MRSA ATCC-BAA-44 = assay: MIC, panel of MRSA strains: ATCC-BAA-44; format: cell-based; settings: Staphylococcus aureus; MRSA strain ATCC-BAA-44
Method: as §1, §2
as §3, with “recorded. […]” for “recorded.”

MRSA ATCC-1720 = assay: MIC, panel of MRSA strains: ATCC-1720; format: cell-based; settings: Staphylococcus aureus; MRSA strain ATCC-1720
Method: as §1, §2
as §3, with “recorded. […]” for “recorded.”

MRSA ATCC-2094 = assay: MIC, panel of MRSA strains: ATCC-2094; format: cell-based; settings: Staphylococcus aureus; MRSA strain ATCC-2094
Method: as §1, §2
as §3, with “recorded. […]” for “recorded.”

MRSA ATCC-BAA-1680 = assay: MIC, panel of MRSA strains: ATCC-BAA-1680; format: cell-based; settings: Staphylococcus aureus; MRSA strain ATCC-BAA-1680
Method: as §1, §2
as §3, with “recorded. […]” for “recorded.”

MRSA ATCC-BAA-1681 = assay: MIC, panel of MRSA strains: ATCC-BAA-1681; format: cell-based; settings: Staphylococcus aureus; MRSA strain ATCC-BAA-1681
Method: as §1, §2
as §3, with “recorded. […]” for “recorded.”

MRSA ATCC-700699 = assay: MIC, panel of MRSA strains: ATCC-700699; format: cell-based; settings: Staphylococcus aureus; MRSA strain ATCC-700699
Method: as §1, §2
as §3, with “recorded. […]” for “recorded.”

N=C(N)NCCCCNC(=O)[C@H](Cc1ccc(-c2ccccc2)cc1)NC(=O)[C@H](CCCNC(=N)N)NC(=O)[C@@H](N)Cc1ccc(-c2ccccc2)cc1 [Compound 1a, Bip-Arg-Bip-agmantine]
MIC value compared with Linezolid and Daptomycin (MRSA (ATCC 33591); S. aureus tests (ATCC 33591, RN 4220, ATCC 29123)): lower MIC value | MIC (MRSA (ATCC 33591); MRSA (ATCC 33591), read-out: MIC value): 3.12 µM (≈ 2.29 µg/mL) | MIC (MRSA (ATCC 33591); MRSA (ATCC 33591), read-out: MIC(μM) (ATCC 33591)): 3.12 µM (≈ 2.29 µg/mL) | MIC (S. aureus (RN 4220)): 3.12 µM (≈ 2.29 µg/mL) | MIC (S. aureus (ATCC 29213) [1]; ATCC 29123 / ATCC 29213, S. aureus (ATCC 29123) as printed, read-out: MIC value): 3.12 µM (≈ 2.29 µg/mL) | MIC (S. aureus (ATCC 29213) [1]; ATCC29213, S. aureus (ATCC 29213), read-out: MIC(μM) (ATCC 29213)): 3.12 µM (≈ 2.29 µg/mL) | MIC compared with Daptomycin ([2]; Strep. tests (Strep. pneumoniae ATCC 49619, Strep. pyogenes ARC 838)): at least improvement over Daptomycin | MIC ([2]; Streptococcus pneumoniae, ATCC49619, Strep. pneumoniae (ATCC 49619)): 6.25 µM (≈ 4.58 µg/mL) | MIC [3]: 6.25 µM (≈ 4.58 µg/mL) | activity on E. faecalis (E. faecalis): showed activity | mode of action (regrowth after dilution of the antibacterial) (S. aureus (ATCC 29213) [4]): bactericidal mode of action

N=C(N)NCCCCNC(=O)[C@@H](Cc1ccc(-c2ccccc2)cc1)NC(=O)[C@@H](CCCNC(=N)N)NC(=O)[C@H](N)Cc1ccc(-c2ccccc2)cc1 [Compound (A)]
MIC (MRSA (ATCC 33591); MRSA (ATCC 33591), read-out: MIC): 1.56 µM (≈ 1.14 µg/mL) | MIC (MRSA (ATCC 33591); MRSA strain ATCC-33591, read-out: MIC values): 1.56 µM (≈ 1.15 µg/mL) | MIC (MRSA ATCC-BAA-44): 3.12 µM (≈ 2.29 µg/mL) | MIC (MRSA ATCC-1720): 3.12 µM (≈ 2.29 µg/mL) | MIC (MRSA ATCC-2094): 3.12 µM (≈ 2.29 µg/mL) | MIC (MRSA ATCC-BAA-1680): 1.56 µM (≈ 1.15 µg/mL) | MIC (MRSA ATCC-BAA-1681): 3.12 µM (≈ 2.29 µg/mL) | MIC (MRSA ATCC-700699): 3.12 µM (≈ 2.29 µg/mL)

From US10787483B2, “Antimicrobial peptidomimetics” (Agency for Science, Technology and Research, priority 2014, dated 2020)
